Laboratory results from patent publication US4435570A, “5-(Phenyl or benzyl amino)methyl-pyrrolo[2,3-d]pyrimidin-4-one” (Takeda Chemical Industries, Ltd., priority 1981, dated 1984).
≈ marks a conversion by molar mass, not a printed value.

What was measured:
[1] = system: L5178Y cells (tumor cells); experiment: Inhibitory effect upon the multiplication of tumor cells; format: cell-based; details: RPMI 1640 medium+10% fetal calf serum, 48 hours, 37° C.; for IC50: Mus musculus, read-out: ED50 (concentration giving a cell count of 50% of control)
Procedure: The inhibitory effect of compound (I) upon the multiplication of cells was detected using L5178Y cells (tumor cells) in RPMI 1640 medium+10% fetal calf serum for 48 hours at 37° C.
The result was expressed in the concentration of the drug giving a cell count of 50% (ED50) with the average number of cells for the control (not modicated) group on the 2nd day being taken as 100%.

[2] = system: rat liver tRNA-guanine transglycosidase; experiment: Intake of compound into tRNA (tRNA-guanine transglycosidase, [3H]guanine-labeled tRNA); format: biochemical; details: 0.02 OD260 of compound, 0.5 unit enzyme, 100 μl, 37° C., 17 hrs
Procedure: Intake of the compound of Example 1 into tRNA [^3 H]guanine-labeled tRNA* (8000 cpm), 70 mM Trishydrochloride, 60 mM magnesium chloride, 0.5 unit of rat liver tRNA-guanine transglycosidase and 0.02 OD260 of the compound of Example 1 were adjusted to 100 μl and reacted at 37° C. for 17 hrs. The reaction mixture was absorbed into a strip of Whatman 3 MM filter paper and washed three times with a 5% aqueous solution of trichloroacetic acid, once each with ethanol-ether (1:1) and ether. After drying, the paper strip was scanned with a toluenic scintillant.
* tRNA labeled with [^3 H] guanine in the first letter of its anticodon.
The 0.02 OD260 equivalent of the compound of Example 3 was adjusted to 100 μl and subjected to the same procedure as Experimental Example 1.

[3] = system: tRNA in the tumor cells (S-180 cancer-bearing mice); experiment: Intake of the radioactive compound into a tumor tissue (tRNA of tumor cells of S-180 cancer-bearing mice); format: in vivo; details: 100 mg (0.17 mCi)/kg, tail vein once, 24 hours after administration, S-180 i.p. ddN mice
Procedure: Intake of the radioactive compound of Example 2 into a tumor tissue
Using S-180 cancer-bearing mice (ddN mice, 10^7 tumor cells/mouse as transplanted i.p.), 100 mg (0.17 mCi)/kg of the radioactive compound of Example 2 was administered into the tail vein once. Twenty-four hours after administration, the animal was sacrificed and the tumor cells were taken out and the rate of takeup of the radioactive compound into tRNA in the tumor cells was determined. […] [Experimental method: N. Okada et al., Biochem., 19, 395 (1980)]

Row | SMILES | IC50 [1] [µg/mL] | taken into tRNA [2] [%] | rate of takeup of the radioactive compound into tRNA in the tumor cells (tRNA substituted) [3] [%] | ED50 (concentration giving a cell count of 50% of control) [1] [µg/mL]
1 | N=C(NCc1c[nH]c2nc(N)[nH]c(=O)c12)c1cc(I)c(O)c(I)c1 [Example 1, 2-amino-5-[α-(3,5-diiodo-4-hydroxy)phenyliminomethylamino]methylpyrrolo[2,3-d]pyrimidin-4-one] | 20 (≈ 36.4 µM) | 59 | – | –
2 | N=C(NCc1c[nH]c2nc(N)[nH]c(=O)c12)c1cc(I)c(O)c(I)c1 [Example 2, radioactive 2-amino-5-[α-(3,5-diiodo-4-hydroxy)phenyliminomethylamino]methylpyrrolo[2,3-d]pyrimidin-4-one] | – | – | ~100 | –
3 | Nc1nc2[nH]cc(CNCc3ccc(I)cc3)c2c(=O)[nH]1 [Example 3, 2-amino-5-(p-iodobenzyl)aminomethylpyrrolo[2,3-d]pyrimidin-4-one] | 35 (≈ 88.6 µM) | 93 | – | –
4 | Nc1nc2[nH]cc(CN[C@H]3C=C[C@H](O)[C@@H]3O)c2c(=O)[nH]1 [Q base, reference compound] | – | – | – | > 200
